Data as given in patent US11672834B2, “Probiotic and prebiotic compositions, and methods of use thereof for modulation of the microbiome” (Evelo Biosciences, Inc., priority 2014, dated 2023).

What was measured:
tumors = settings: oral administration; cited from earlier work
serum endotoxin = test system: serum endotoxin
Source text: FIG. 1 is a graph depicting serum endotoxin levels (EU/ml) over time following treatment with xylose.

[1] = test system: Blautia; Lactobacillus johnsonii; experiment: Sugar fermentation by Blautia versus Lactobacillus johnsonii (pH and optical density, media lacking glucose); format: cell-based
C57Bl/6 female mice = settings: mouse, in vivo
Source text: The trillions of organisms forming the microbiome function as an organ system interconnected throughout the body. The possibility that modification of the microbiome in a given physical location may influence the microbiome at other sites in the body (distal augmentation) was investigated. Seven week old C57Bl/6 female mice were acclimatized for 7 days prior to the start of the study by daily handling and shuffling between cages. All mice were housed at three mice per cage in individually vented cages (Thoren, Hazleton, Pa.). At day 0, baseline fresh fecal pellets, and vaginal lavages with 100 μL of sterile double-distilled water were collected and immediately frozen at −80° C. for microbiome analysis. […] Water alone is not expected to influence the microbiome and acted as a negative control. […] The impact of oral vancomycin is therefore expected to be limited to the gastrointestinal tract such that microbiome changes elsewhere in the body (e.g. vagina) would be attributable to distal augmentation. At day 6, fresh fecal pellets and vaginal lavages with 100 μL of sterile double-distilled water were collected and immediately stored at −80° C. for microbiome analysis.
Isolation and sequencing of microbial DNA from the stool and vaginal samples was performed by DNA Genotek (Ottawa, ON, Canada). The V3-V4 region of the 16S ribosomal subunit was amplified with custom PCR primers and sequenced on an Illumina MiSeq to a minimum acceptable read depth of 25,000 sequences per sample. […] These OTU's were then assigned a curated taxonomic label based on the seven level SILVA taxonomy.

[2] = test system: anaerobic commensal bacteria; experiment: Carbon source utilization by commensal bacteria (Biolog PM01/PM02A plates, OD 750 nm); format: cell-based
[3] = test system: healthy, adult volunteers; settings: human, in vivo, 28 days
Procedure: D-xylose is a carbon source generally preferred by anaerobic bacteria. […] A parallel, double-blind, 5 cohort escalation food safety study was conducted to examine D-xylose in normal human volunteers. The study was a double-blind, single-center, parallel group study designed to evaluate the tolerability and potential microbiome changes induced by ingestion of D-xylose at 5 different amounts in healthy, adult volunteers enrolled at 1 study center in the United States (US).
Subjects were screened for eligibility within 21 days prior to the first planned ingestion of study sweetener on Day 1 (Baseline). […]
Subjects returned to the study center weekly on Days 8, 15, 22, and 28 for ingestion, tolerability, and compliance evaluations. Safety was evaluated on a continual basis through adverse events (AE) monitoring, clinical laboratory measurements, vital sign monitoring, physical examinations, electrocardiograms (ECGs), telephone follow-up, and electronic subject ingestion diaries. Stool was collected pre-ingestion and at pre-specified time points, and post-ingestion samples were evaluated for changes in the gut microbiome compared with Baseline for all subjects. […]
Safety was evaluated on a continual basis through AE monitoring, clinical laboratory measurements, vital sign monitoring, physical examinations, ECGs, telephone follow-up, and electronic subject ingestion diaries. […]

[4] = Normal human volunteer study of D-xylose: pharmacokinetics (serum and urine D-xylose); format: in vivo; settings: Day 15; 15 mg TID cohort; variability high
Procedure: Blood and urine were collected at pre-specified pre- and post-ingestion time points to measure D-xylose levels and to characterize the systemic absorption profiles of D-xylose. Serum D-xylose concentrations were summarized by cohort using nominal sample times according to actual amount received using summary statistics (n, coefficient of variation [CV], mean, standard deviation [SD], median, minimum, and maximum). Evidence for the occurrence of steady-state was assessed graphically by comparing the time course of either trough or 2-hour post-ingestion serum concentrations of D-xylose as different levels of D-xylose. Accumulation was assessed by comparing the 2-hour post-first-ingestion serum levels with those observed at Week 2 (Day 15) and Week 4 (Day 28). […] Urine PK parameters for D-xylose levels included Ae(0-t) (cumulative amount of sweetener recovered in urine) and percent sweetener amount excreted over a 5-hour period.

[5] = test system: healthy, adult volunteers; experiment: Normal human volunteer study of D-xylose: immunology (CRP, cytokines, T-cell markers) and gut microbiome; format: in vivo; settings: for effect on gut microbiome (alpha diversity, community composition): stool 16S, normal individuals
Source text: Blood was collected at pre-specified pre- and post-ingestion time points to evaluate C-reactive protein (CRP), serum cytokines (tumor necrosis factor alpha [TNF-α], interleukin [IL]-2, IL-6, interferon gamma [IFN-γ], and IL-10), and T-cell markers CD3, CD4, CD8, CD25, and FOXP3. Plasma was also stored and may be tested for biomarkers and/or metabolic markers for up to 7 years.
A total of 7 stool samples were expected to be collected for each subject. Evaluation of changes in the gut microbiome were evaluated in stool samples through taxonomic classification, relative and statistical differential abundance analyses by cohort and time point, an alpha diversity analysis calculated using the Shannon diversity index by cohort and time point, a beta diversity analysis using Bray-Curtis dissimilarity and Unifrac distance by subject and time point, and a principal coordinates analysis using the beta diversity data.
Summary statistics (n, mean, standard deviation, median, minimum, and maximum) were presented for serum concentrations of CRP, flow cytometry T-cell markers (CD3, CD4, CD8, CD25, and FOXP3), and cytokines (TNF-α, IL-2, IL-6, IFN-γ, and IL-10) as per their nominal time points.
A total of 344 stool samples were collected in OMNIgene•GUT collection kits and shipped to the GenoFIND laboratory for DNA extraction and V3-V4 16S amplicon sequencing. […] Numerous taxa were identified as differentially abundant, but this finding may be attributable to the relatively small sample sizes of each cohort. […] The impact of xylose on the microbiome under disease conditions remains to be determined.

mice with GVHD = settings: mouse, in vivo
[6] = test system: Tregs in the large intestine; settings: mouse, in vivo; cited from earlier work

Q: With Bacteroides as the molecule, how does the “responsiveness to checkpoint inhibitor therapy in cancer” value (tumors) read?
A: increases the responsiveness to checkpoint inhibitor therapy in cancer

Q: Which results are given for `CCN1CCN(c2cc3c(cc2F)c(=O)c(C(=O)O)cn3C2CC2)CC1` [enrofloxacin, reference compound]?
A: serum endotoxin levels after antibiotic treatment, recovery (serum endotoxin; mice, by day 14): return to baseline; serum endotoxin levels after antibiotic treatment (serum endotoxin; mice, measured 2 days after a 5 day course, at day 0): leads to an increase in serum endotoxin levels

Q: For `C[C@H](O)[C@H](O)[C@@H](O)[C@@H](O)C=O` [rhamnose], which “substrate fermentable by Blautia but not lactobacillus” value [1] is on record?
A: specifically augments Blautia but not lactobacillus

Q: With `CN[C@H](CC(C)C)C(=O)N[C@H]1C(=O)N[C@@H](CC(N)=O)C(=O)N[C@H]2C(=O)N[C@H]3C(=O)N[C@H](C(=O)N[C@H](C(=O)O)c4cc(O)cc(O)c4-c4cc3ccc4O)[C@H](O)c3ccc(c(Cl)c3)Oc3cc2cc(c3O[C@@H]2O[C@H](CO)[C@@H](O)[C@H](O)[C@H]2O[C@H]2C[C@](C)(N)[C@H](O)[C@H](C)O2)Oc2ccc(cc2Cl)[C@H]1O` [Vancomycin, vancomycin] as the molecule, how does the “impact on the microbiome of the gut (fecal samples, PCA at family level)” value (C57Bl/6 female mice) read?
A: strong impact on the microbiome of the gut

Q: And the “median abundance of bacterial species detected in vaginal samples at day 6 that were not present at day 0” value (C57Bl/6 female mice)?
A: approximately 0.00002%

Q: What about the “day 0 to day 6 pattern in vaginal samples (PCA)” value (C57Bl/6 female mice; po) of the same molecule?
A: overall difference between the PBS and oral vancomycin groups

Q: With `O=C[C@H](O)[C@@H](O)[C@H](O)CO` [D-xylose] as the molecule, how does the “use as carbon source by bacterial strains” value [2] read?
A: used as a carbon source by several bacterial strains

Q: And the “subjects with at least 1 AE considered related to study sweetener” value [3]?
A: 25.0%

Q: What about the accumulation ratio [4] of the same molecule?
A: approximately 1.9 fold

Q: And the “serum interferon gamma over time” value ([5]; 2 g and 15 g D-xylose cohorts)?
A: trend for reduced levels of serum interferon gamma over time

Q: What about the “total T-cells or T-cell subsets over time” value ([5]; any D-xylose ingestion amount) of the same molecule?
A: No consistent or clinically meaningful changes over time

Q: And the “effect on gut microbiome (alpha diversity, community composition)” value [5]?
A: no apparent significant impact on the intra-sample alpha diversity

Q: With `O=C[C@H](O)[C@@H](O)[C@H](O)CO` [xylose] as the molecule, how does the “basal levels of serum endotoxin” value (serum endotoxin; mouse, in vivo) read?
A: reduces basal levels of serum endotoxin

Q: What about the “effect on the endotoxin increase caused by cipro” value (serum endotoxin; mouse, in vivo) of the same molecule?
A: counteracts the endotoxin increase

Q: What about the “effect on the endotoxin increase caused by enro” value (serum endotoxin; mouse, in vivo) of the same molecule?
A: not

Q: And the “effect on gut microbiome (alpha diversity, community composition)” value [5]?
A: exerts subtle changes in the gut microbiome

Q: What about the “substrate fermentable by Blautia but not lactobacillus” value [1] of the same molecule?
A: specifically augments Blautia but not lactobacillus

Q: What about the “Blautia in the intestinal flora” value (mice with GVHD) of the same molecule?
A: expansion of Blautia in the intestinal flora

Q: And the “survival of mice with GVHD” value (mice with GVHD)?
A: improved survival of mice with GVHD

Q: Which “numbers of Tregs in the large intestine” value [6] does the source give for `CC(=O)O` [acetate] here?
A: restored normal numbers of Tregs in the large intestine

Q: With Bifidobacterium as the molecule, how does the “responsiveness to checkpoint inhibitor therapy in cancer” value (tumors) read?
A: increases the responsiveness to checkpoint inhibitor therapy in cancer

Q: Which “numbers of Tregs in the large intestine” value [6] does the source give for `CCC(=O)O` [propionate] here?
A: restored normal numbers of Tregs in the large intestine
